From ChEMBL document CHEMBL1127036, “Design of antineoplastic agents on the basis of the "2-phenylnaphthalene-type" structural pattern. 2. Synthesis and biological activity studies of benzo]b]naphtho[2,3-d]furan-6,11-dione derivatives” (J Med Chem, 1993)
Active and inactive are the calls of the source. No cut-off for these calls is given here.

Experiments:
Assay type in all cases: functional, cell-based
[1] = Cytotoxicity against human SCLC cells resistant to cisplatin (SCLC/CDDP)
CCRF-CEM [2] = experiment: Tested for inhibition against CEM cells; details: Homo sapiens
CCRF-CEM [3] = experiment: Tested for inhibition against CEM/MDR (multidrug resistant) cells; details: Homo sapiens
Tumor Cell line [4] = experiment: Tested for the inhibition of human cancer cell growth (NCI drug-discovery screen.)
N592 = experiment: Cytotoxicity against human small-cell lung cancer (SCLC)
HL-60 = experiment: Tested for inhibition against human promyelocytic leukemia cells (HL-60 )
Tumor Cell line [5] = experiment: Tested for the inhibition of human cancer cell growth (NCI drug-discovery screen.); Inactive

Molecule | IC50 ([1]; Homo sapiens, SCLC) | IC50 (CCRF-CEM [2]) | IC50 (CCRF-CEM [3]) | IC50 (Tumor Cell line [4]) | IC50 (N592; Homo sapiens, N592) | IC50 (HL-60) | Log IC50 (Tumor Cell line [5]) | IC50 ([1]; sclc) | IC50 (N592; n592)
CN(C)CCOc1ccc2c3c(oc2c1)C(=O)c1ccccc1C3=O | 0.94 µM | 0.2 µM | 0.15 µM | 10 µM | 0.73 µM | 0.3 µM | – | – | –
CCN(CC)CCOc1cc(O)c2c3c(oc2c1)C(=O)c1ccccc1C3=O | 0.48 µM | – | – | 0.1 µM | 0.24 µM | 0.098 µM | – | – | –
Cc1cc(O)cc2oc3c(c12)C(=O)c1ccccc1C3=O | > 3.5 µM | – | – | – | > 3.5 µM | 6.65 µM | inactive | – | –
O=C1c2c(O)ccc(O)c2C(=O)c2c(NCCNCCO)ccc(NCCNCCO)c21 [MITOXANTRONE] | 0.03 µM | – | – | – | 0.02 µM | – | – | – | –
O=C1c2ccccc2C(=O)c2c1oc1cc(O)cc(O)c21 | 1.28 µM | 0.5 µM | 0.6 µM | 1 µM | 1.03 µM | 0.22 µM | – | – | –
CC[C@]1(O)C[C@@H]2CN(CCc3c([nH]c4ccccc34)[C@@](C(=O)OC)(c3cc4c(cc3OC)N(C)[C@H]3[C@@](O)(C(=O)OC)[C@H](OC(C)=O)[C@]5(CC)C=CCN6CC[C@]43[C@@H]65)C2)C1 [VINBLASTINE] | 0.005 µM | – | – | – | 0.004 µM | – | – | – | –
COc1cc([C@@H]2c3cc4c(cc3[C@@H](O[C@@H]3O[C@@H]5CO[C@@H](C)O[C@H]5[C@H](O)[C@H]3O)[C@H]3COC(=O)[C@H]23)OCO4)cc(OC)c1O [ETOPOSIDE] | 1.3 µM | – | – | – | 0.5 µM | – | – | – | –
CN(C)CCOc1cc2oc3c(c2cc1Cl)C(=O)c1ccccc1C3=O | 0.62 µM | 0.25 µM | 0.3 µM | 1 µM | 0.37 µM | 0.24 µM | – | – | –
CN(C)CCCOc1cc2oc3c(c2c2ccccc12)C(=O)c1ccccc1C3=O | > 2.5 µM | – | – | – | > 2.5 µM | 1.39 µM | inactive | – | –
CC(C)N(CCOc1cc(O)c2c3c(oc2c1)C(=O)c1ccccc1C3=O)C(C)C | 1.13 µM | – | – | 1 µM | 0.22 µM | 0.089 µM | – | – | –
O=C1c2ccccc2C(=O)c2c1oc1cc(O)c(Cl)cc21 | > 3.4 µM | – | – | 10 µM | > 3.4 µM | 6.09 µM | – | – | –
Cc1cc(OCCN(C)C)cc2oc3c(c12)C(=O)c1ccccc1C3=O | > 2.6 µM | – | – | – | > 2.6 µM | 1.8 µM | – | – | –
COc1cccc2c1C(=O)c1c(O)c3c(c(O)c1C2=O)C[C@@](O)(C(=O)CO)C[C@@H]3O[C@H]1C[C@H](N)[C@H](O)[C@H](C)O1 [DOXORUBICIN] | 0.03 µM | – | – | – | 0.04 µM | – | – | – | –
CN(C)CCCOc1cc(O)c2c3c(oc2c1)C(=O)c1ccccc1C3=O | 0.68 µM | – | – | 0.1 µM | 0.68 µM | 0.045 µM | – | – | –
CN(C)CCCOc1cc2oc3c(c2cc1Cl)C(=O)c1ccccc1C3=O | 0.59 µM | 0.17 µM | 0.15 µM | 10 µM | 0.59 µM | 0.28 µM | – | – | –
O=C1c2ccccc2C(=O)c2c1oc1cc3c(cc21)OCO3 | > 40.3 µM | – | – | – | > 40.3 µM | > 100 µM | – | – | –
CISPLATIN | – | – | – | – | – | – | – | 6.7 µM | 0.67 µM
O=C1c2ccccc2C(=O)c2c1oc1cc(O)c3ccccc3c21 | > 3.2 µM | – | – | – | > 3.2 µM | 80.6 µM | – | – | –
O=c1[nH]cc(F)c(=O)[nH]1 [FLUOROURACIL] | 8.4 µM | – | – | – | 5.4 µM | – | – | – | –
O=C1c2ccccc2C(=O)c2c1oc1cc(O)ccc21 | > 3.8 µM | – | – | 10 µM | > 3.8 µM | 7.78 µM | – | – | –
CN(C)CCCOc1ccc2c3c(oc2c1)C(=O)c1ccccc1C3=O | 2.6 µM | – | – | 10 µM | 1.3 µM | 0.34 µM | – | – | –
CN(C)CCOc1cc2oc3c(c2c2ccccc12)C(=O)c1ccccc1C3=O | 1.95 µM | – | – | – | 1.3 µM | 0.87 µM | inactive | – | –
CN(C)CCOc1cc(O)c2c3c(oc2c1)C(=O)c1ccccc1C3=O | 2.56 µM | – | – | 0.1 µM | 2.13 µM | 0.046 µM | – | – | –
